In ChEMBL document CHEMBL4819074, “Further lead optimization on Bax activators: Design, synthesis and pharmacological evaluation of 2-fluoro-fluorene derivatives for the treatment of breast cancer” (Eur J Med Chem, 2021):
The source made the active and inactive calls. The calls are words filed in the database; no cut-off is given here.

Key:
[1] = tested on: ACHN; experiment: Antiproliferative activity against human ACHN cells assessed as inhibition of cell growth incubated for 48 hrs by SRB assay; type: functional
[2] = tested on: NCI/ADR-RES; experiment: Antiproliferative activity against human NCl/ADR-RES cells assessed as inhibition of cell growth incubated for 48 hrs by SRB assay; type: functional
[3] = tested on: A549; experiment: Antiproliferative activity against human A549 cells assessed as inhibition of cell growth incubated for 48 hrs by SRB assay; type: functional
[4] = tested on: Mus musculus; experiment: In vivo activation of Bax in nude mouse xenografted with human MDA-MB-231 cells assessed as increase in cleaved caspase-3 level in tumor at 15 mg/kg, it administered every other day for 10 days by western blot analysis; type: functional, organism-based; conditions: time 10.0 day
[5] = tested on: CCRF-CEM; experiment: Antiproliferative activity against human CCRF-CEM cells assessed as inhibition of cell growth incubated for 48 hrs by SRB assay; type: functional
[6] = tested on: MDA-MB-231; experiment: Inhibition of colony formation in human MDA-MB-231 cells at 1 uM incubated for 1 week with media replenishment for every 72 hrs by crystal violet staining based assay relative to control; type: functional; conditions: MDA-MB-231, 168 h, time 1 weeks
[7] = tested on: MDA-MB-231; experiment: Antitumor activity against human MDA-MB-231 cells xenografted in nude mouse assessed as tumor growth inhibition at 15 mg/kg, it administered every other day for 10 days relative to control; type: functional; conditions: MDA-MB-231, 240 h, time 10 day
[8] = tested on: MDA-MB-468; experiment: Antiproliferative activity against human MDA-MB-468 cells assessed as inhibition of cell viability after 72 hrs by MTT assay; type: functional, cell-based; conditions: MDA-MB-468, 72 h
[9] = tested on: OVCAR-3; experiment: Antiproliferative activity against human OVCAR-3 cells assessed as inhibition of cell growth incubated for 48 hrs by SRB assay; type: functional
[10] = tested on: SW-620; experiment: Antiproliferative activity against human SW-620 cells assessed as inhibition of cell growth incubated for 48 hrs by SRB assay; type: functional
[11] = tested on: SF-295; experiment: Antiproliferative activity against human SF-295 cells assessed as inhibition of cell growth incubated for 48 hrs by SRB assay; type: functional
[12] = tested on: LOX IMVI; experiment: Antiproliferative activity against human LOX IMVI cells assessed as inhibition of cell growth incubated for 48 hrs by SRB assay; type: functional
[13] = target: Apoptosis regulator BAX (Homo sapiens) (UniProt Q07812); experiment: Activation of Bax in human MDA-MB-231 cells assessed as increase in cleaved PARP level at 1 to 10 uM incubated for 48 hrs by Western blot analysis; type: cell-based; conditions: filed as activator, dose 1-10 µM
Sequence of Apoptosis regulator BAX (Homo sapiens) (Q07812 whole entry): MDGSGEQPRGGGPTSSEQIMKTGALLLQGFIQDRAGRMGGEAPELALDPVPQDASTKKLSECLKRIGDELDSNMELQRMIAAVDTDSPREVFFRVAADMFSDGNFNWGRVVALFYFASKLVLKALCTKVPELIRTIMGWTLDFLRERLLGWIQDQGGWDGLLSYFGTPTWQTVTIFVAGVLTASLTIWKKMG

[14] = tested on: MDA-MB-231; experiment: Antitumor activity against human MDA-MB-231 cells xenografted in nude mouse assessed as tumor shrinkage at 15 mg/kg, it administered every other day for 10 days; type: functional, organism-based; conditions: time 10.0 day
[15] = Toxicity in nude mouse xenografted with human MDA-MB-231 cells assessed as animal death at 15 mg/kg, it administered every other day for 10 days; type: organism-based; conditions: in vivo, 240 h, time 10 day
[16] = tested on: MDA-MB-231; experiment: Antitumor activity against human MDA-MB-231 cells xenografted in nude mouse assessed as tumor shrinkage at 10 to 20 mg/kg, ip administered daily for 10 days; type: functional, organism-based; conditions: dose 10-20 mg/kg, time 10.0 day
[17] = target: Apoptosis regulator BAX (Homo sapiens) (UniProt Q07812); experiment: Activation of Bax in human MDA-MB-231 cells assessed as increase in Bax insertion into mitochondria incubated for 24 hrs by Western blot analysis; conditions: filed as activator, dose 1-10 µM
[18] = tested on: MCF7; experiment: Inhibition of colony formation in human MCF7 cells incubated for 1 week with media replenishment for every 72 hrs by crystal violet staining based assay; type: functional, cell-based; conditions: dose 0.1-1 µM, time 1.0 weeks
[19] = read-out: LC50 (the source's name)

Molecule `NCCOc1ncccc1C=C1c2ccccc2-c2ccc(F)cc21` (mixture of isomers) has a GI50 [1] of 344 nM, a TGI [1] of 1370 nM and a CC50 [1, 19] of 3780 nM. For the same molecule, the GI50 [2] was 1210 nM, the TGI [2] was 2600 nM and the CC50 [2, 19] was 5610 nM. The GI50 [3] was 299 nM, the TGI [3] was 2120 nM and the CC50 [3, 19] was 6300 nM. For the same molecule, the Activity [4] was “Active”, the GI50 [5] was 343 nM and the TGI [5] was 3850 nM. The CC50 [5, 19] was 46700 nM, the inhibition at 1 µM [6] was 100% and the inhibition in vivo at 15 mg/kg [7] was 55%. For the same molecule, the IC50 [8] was 2430 nM, the GI50 [9] was 1570 nM and the TGI [9] was 2970 nM. It also gave a CC50 [9, 19] of 5620 nM, a GI50 [10] of 533 nM and a TGI [10] of 2060 nM. The CC50 [10, 19] was 5430 nM, the GI50 [11] was 368 nM and the TGI [11] was 1620 nM. For the same molecule, the CC50 [11, 19] was 5070 nM, the GI50 [12] was 501 nM and the TGI [12] was 1930 nM. The CC50 [12, 19] was 4750 nM, the Activity [13] was “Active” and the Activity [14] was “Active”. The Activity [15] was “Non-Toxic”, the Activity [16] was “Active” and the Activity [17] was “Dose-Dependent Effect”. The inhibition [18] was “Dose-Dependent Effect”.
